Experimental data taken from PubChem BioAssay (NCI).
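Results reflect a 48-hour exposure of cells in 96-well plates to compound at five concentrations. Here, GI50 denotes the concentration required for 50% inhibition of growth. TGI is the concentration that stops growth completely.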 Where a SMILES comes first, the peptide text is derived from it. The star is where a group is joined. Trt = c1ccc(C(c2ccccc2)(c2ccccc2)*)cc1; Cbz = O=C(OCc1ccccc1)*

Legend:
Test in all cases: NCI anticancer screen, dose series, 48 h
HCT-116 colon = system: HCT-116 colon
OVCAR-4 ovarian = system: OVCAR-4 ovarian
HCT-15 colon = system: HCT-15 colon
SF-295 CNS = system: SF-295 CNS
NCI/ADR-RES ovarian = system: NCI/ADR-RES ovarian
DU-145 prostate = system: DU-145 prostate
NCI-H23 lung = system: NCI-H23 lung
CAKI-1 renal = system: CAKI-1 renal

| SMILES | GI50 (HCT-116 colon) [µM] | TGI (HCT-116 colon) [µM] | GI50 (OVCAR-4 ovarian) [µM] | TGI (OVCAR-4 ovarian) [µM] | GI50 (HCT-15 colon) [µM] | TGI (HCT-15 colon) [µM] | GI50 (SF-295 CNS) [µM] | TGI (SF-295 CNS) [µM] | GI50 (NCI/ADR-RES ovarian) [µM] | TGI (NCI/ADR-RES ovarian) [µM] | GI50 (DU-145 prostate) [µM] | TGI (DU-145 prostate) [µM] | GI50 (NCI-H23 lung) [µM] | TGI (NCI-H23 lung) [µM] | GI50 (CAKI-1 renal) [µM] | TGI (CAKI-1 renal) [µM] |
| --- | --- | --- | --- | --- | --- | --- | --- | --- | --- | --- | --- | --- | --- | --- | --- | --- |
| O=C(/C=C/c1cccc2ccccc12)Nc1ncc(Cc2ccccc2)s1 | 0.46 | 11.6 | 2.12 | 5.16 | 0.507 | > 100 | 0.443 | 2.33 | 0.713 | > 69.3 | 1.61 | > 100 | 1.58 | > 100 | 0.609 | 3.71 |
| CN1CCN(c2ccc3nc(-c4ccc(OCCCCN5CCN(CCCCN6C(=O)c7cccc8cccc(c78)C6=O)CC5)cc4)[nH]c3c2)CC1 | > 100 | > 100 | > 100 | > 100 | 35.3 | > 100 | 62.4 | > 100 | > 100 | > 100 | 29.4 | > 100 | > 100 | > 100 | 73.1 | > 100 |
| O=C1C=C(N2CCN(CCOCCO)CC2)C(=O)c2c(O)ccc(O)c21 | – | 7.44 | – | 8.33 | – | 9.55 | – | 27.8 | – | 10.4 | – | 10.5 | – | 4.67 | – | 29.3 |
| O=C1/C(=C\c2ccccc2)C2OCC=C3CN4CCC56c7ccccc7N1C5C2C3CC46 (stereo not given) | 6 | > 100 | > 100 | > 100 | 7.77 | > 100 | 3.69 | 24.7 | > 100 | > 100 | > 100 | > 100 | > 100 | > 100 | 2.18 | 32.1 |
| COC(=O)C(CSC(c1ccccc1)(c1ccccc1)c1ccccc1)NC(=O)C(CC(N)=O)NC(=O)OCc1ccccc1 (stereo not drawn) (Cbz-Asn-Cys(Trt)-OMe; configuration not given here) | 2.79 | 10.7 | 7.64 | 84.8 | 3.81 | 14.1 | 2.96 | 13.9 | 4.48 | 20.8 | 2.68 | 8.61 | 5.73 | 22.6 | 3.51 | 14.3 |
| COc1cccc2c1cc1c3c(cc4c(c32)OCO4)C(=O)N1 | 3.63 | 13.2 | 2.61 | 7.26 | 4.14 | > 100 | 7.27 | 29.1 | 2.71 | 7.46 | 8.79 | 66.4 | 3.45 | 13.4 | 22.4 | > 100 |
| O=C(C=C=Nc1ccccc1)C(=O)N=C=Cc1ccccc1 | 1.55 | 3.84 | 2.15 | 6.41 | 1.42 | 4.05 | 14.5 | 40.9 | 2.95 | 14.7 | 2.24 | 6.82 | 4.55 | 19.5 | 1.73 | 6.05 |
| Cc1cc2nc(-c3c(F)cccc3Cl)n(Cc3c(F)cccc3Cl)c2cc1C | 6.43 | 20.3 | 19 | 74.1 | 13.9 | 33.3 | 6.92 | 33.3 | 12.5 | 26.3 | 16.1 | 41.4 | 9.49 | 22.9 | 2.92 | 14.6 |
| COc1cc(Cn2c(-c3ccccc3)cc3c2-c2oncc2CC3)cc(OC)c1 | 0.354 | > 46.8 | 0.664 | > 100 | 0.361 | > 100 | 0.209 | 4.03 | 0.208 | – | 0.309 | 1.25 | 0.452 | > 100 | 0.354 | > 100 |
| CN=C(N)N/N=C(\C)c1ccc2c(c1)Cc1ccccc1-2 | 1.43 | 2.74 | 3.98 | 19.4 | 1.83 | 3.86 | 1.9 | 4.32 | 2.02 | 4.5 | 1.12 | 3.17 | 2.84 | 12.3 | 2.5 | 8.82 |
| CSCCCNC(=O)[C@H](CSC)NC(=O)c1csc(CCNC(=O)[C@@H](NSc2ccccc2[N+](=O)[O-])C(C)O)n1 (stereo not given in full) | – | > 100 | – | > 100 | – | > 100 | – | > 100 | – | > 100 | – | > 100 | – | > 100 | – | > 100 |
| Cc1c(Cl)c(C)c(Cc2c(C)c(Cl)c(C)c(Cl)c2O)c(O)c1Cl | 2.42 | 10.5 | 2.99 | 9.97 | 2.32 | 10.7 | 2.05 | 5.08 | 3.09 | 10.2 | 4.83 | 16.6 | 2.46 | 8.79 | 2.3 | 9.77 |
